Test results taken from the supplement of paper PMC11061612.

Tests used:
[1] = system: OCI-AML3 (Acute Myeloid Leukemia); test: Bliss excess, mean over the matrix (fraction); higher = more synergy
Summary of the method: (§1)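 Cell lines grown in DMEM/F12 or RPMI with 10% FBS were plated in 1536-well plates and held 24 hours at 37°C, 5% CO2 before 72 hours of exposure to two-drug dose matrices, with DMSO typically at 0.2%. CellTiter-Glo 2.0 luminescence gave viability, which was converted to inhibition. Vehicle wells were set to 0 and blank wells to 1. Combination Emax is the second-highest inhibition in the matrix, and Bliss excess is the observed combination effect minus the expected EA + EB − EA·EB, where EA and EB are the single-agent effects.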

[2] = system: COR-L279 (Small Cell Lung Carcinoma); test: combination Emax (second highest fraction inhibited in the dose matrix, 72 h); higher = more inhibition; extreme values may be limits of the assay
Summary of the method: as §1

[3] = system: CW-2 (Colorectal Carcinoma); test: as above
Summary of the method: as §1

[4] = system: DMS-114 (Small Cell Lung Carcinoma); test: as above
Summary of the method: as §1

[5] = system: KP-3 (Pancreatic Carcinoma); test: as above
Summary of the method: as §1

[6] = system: KYSE-270 (Esophageal Squamous Cell Carcinoma); test: as above
Summary of the method: as §1

[7] = system: M059J (Glioblastoma); test: as above
Summary of the method: as §1

[8] = system: MN-60 (B-Lymphoblastic Leukemia); test: as above
Summary of the method: as §1

[9] = system: MOG-G-CCM (Low Grade Glioma); test: as above
Summary of the method: as §1

[10] = system: NCCIT (Other Solid Carcinomas); test: as above
Summary of the method: as §1

[11] = system: NCI-H2731 (Mesothelioma); test: as above
Summary of the method: as §1

[12] = system: NCI-H520 (Squamous Cell Lung Carcinoma); test: as above
Summary of the method: as §1

[13] = system: NCI-H526 (Small Cell Lung Carcinoma); test: as above
Summary of the method: as §1

[14] = system: NCI-H929 (Plasma Cell Myeloma); test: as above
Summary of the method: as §1

[15] = system: OCI-AML3 (Acute Myeloid Leukemia); test: as above
Summary of the method: as §1

[16] = system: SJSA-1 (Osteosarcoma); test: as above
Summary of the method: as §1

[17] = system: SK-GT-4 (Esophageal Adenocarcinoma); test: as above
Summary of the method: as §1

[18] = system: ST486 (Burkitt's Lymphoma); test: as above
Summary of the method: as §1

[19] = system: T-T (Esophageal Squamous Cell Carcinoma); test: as above
Summary of the method: as §1

[20] = system: VMRC-RCZ (Kidney Carcinoma); test: as above
Summary of the method: as §1
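Throughout, for Bliss excess, mean over the matrix: after 72 h of two-drug dosing.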

Row | Structure (SMILES) | Bliss excess [1] | combination Emax [2] | combination Emax [3] | combination Emax [4] | combination Emax [5] | combination Emax [6] | combination Emax [7] | combination Emax [8] | combination Emax [9] | combination Emax [10] | combination Emax [11] | combination Emax [12] | combination Emax [13] | combination Emax [14] | combination Emax [15] | combination Emax [16] | combination Emax [17] | combination Emax [18] | combination Emax [19] | combination Emax [20]
1 | O=C(c1cc(Cc2n[nH]c(=O)c3ccccc23)ccc1F)N1CCN(C(=O)C2CC2)CC1 [Olaparib] + CC1(C)CCC(CN2CCN(c3ccc(C(=O)NS(=O)(=O)c4ccc(NCC5CCOCC5)c([N+](=O)[O-])c4)c(Oc4cnc5[nH]ccc5c4)c3)CC2)=C(c2ccc(Cl)cc2)C1 [Venetoclax] (first compound max 10 µM, 7x7, partner max 1 µM) | 0.0202 | 0.943 | 0.118 | 0.262 | 0.0923 | 0.302 | 0.291 | 0.222 | 0.168 | 0.231 | 0.0659 | 0.119 | 0.862 | 0.21 | 0.427 | 0.118 | 0.101 | 0.217 | 0.177 | 0.0266
2 | Cc1c2c(nn1C)CSCc1cc(n(C)n1)CSc1cc(c3ccccc3c1)OCCCc1c(C(=O)O)n(C)c3c-2c(Cl)ccc13 [AZD5991] + CC(=O)O[C@H]1C(=O)[C@@]2(C)[C@H]([C@H](OC(=O)c3ccccc3)[C@]3(O)C[C@H](OC(=O)[C@H](O)[C@@H](NC(=O)c4ccccc4)c4ccccc4)C(C)=C1C3(C)C)[C@]1(OC(C)=O)CO[C@@H]1C[C@@H]2O [Paclitaxel] (first compound max 1 µM, 7x7, partner max 3 µM) | 0.0141 | 0.997 | 0.497 | 0.944 | 0.365 | 0.962 | 0.865 | 0.539 | 0.936 | 0.984 | 0.397 | 0.769 | 1 | 1 | 1 | 0.725 | 0.454 | 0.994 | 0.989 | 0.358
3 | N#Cc1cnc(Nc2cc(NC[C@H]3CNCCO3)c(C(F)(F)F)cn2)cn1 [SRA737] + CCc1c2c(nc3ccc(O)cc13)-c1cc3c(c(=O)n1C2)COC(=O)[C@]3(O)CC [SN-38] (first compound max 10 µM, 7x7, partner max 0.3 µM) | -0.067 | 1 | 0.625 | 0.608 | 0.273 | 1 | 0.908 | 0.79 | 0.734 | 0.783 | 0.478 | 0.819 | 0.993 | 0.9 | 0.849 | 0.664 | 0.55 | 0.991 | 0.834 | 0.579
4 | Cc1c2c(nn1C)CSCc1cc(n(C)n1)CSc1cc(c3ccccc3c1)OCCCc1c(C(=O)O)n(C)c3c-2c(Cl)ccc13 [AZD5991] + CS(=O)(=O)CCNCc1ccc(-c2ccc3ncnc(Nc4ccc(OCc5cccc(F)c5)c(Cl)c4)c3c2)o1 [Lapatinib] (first compound max 1 µM, 7x7, partner max 10 µM) | -0.0516 | 0.903 | 0.531 | 0.608 | 0.303 | 0.959 | 0.456 | 0.158 | 0.358 | 0.635 | 0.44 | 0.435 | 0.469 | 1 | 0.985 | 0.196 | 0.379 | 0.758 | 0.988 | 0.209
5 | CN(CCO)CC[C@H](CSc1ccccc1)Nc1ccc(S(=O)(=O)NC(=O)c2ccc(N3CCC([C@@H](O)c4ccccc4-c4ccc(Cl)cc4)CC3)cc2)cc1S(=O)(=O)C(F)(F)F [AZD4320] + CS(=O)(=O)CCNCc1ccc(-c2ccc3ncnc(Nc4ccc(OCc5cccc(F)c5)c(Cl)c4)c3c2)o1 [Lapatinib] (first compound max 1 µM, 7x7, partner max 10 µM) | 0.0258 | 1 | 0.593 | 0.36 | 0.363 | 0.708 | 0.705 | 0.206 | 0.729 | 0.243 | 0.858 | 0.57 | 0.995 | 0.589 | 0.884 | 0.332 | 0.774 | 0.96 | 0.935 | 0.598
6 | Cc1cc2ncnn2cc1Nc1ncc2c(n1)n(C1CCOCC1)c(=O)n2C [AZD7648] + COc1cc([C@@H]2c3cc4c(cc3[C@@H](O[C@@H]3O[C@@H]5CO[C@@H](C)O[C@H]5[C@H](O)[C@H]3O)[C@H]3COC(=O)[C@H]23)OCO4)cc(OC)c1O [Etoposide] (first compound max 10 µM, 7x7, partner max 10 µM) | 0.123 | 1 | 0.379 | 0.658 | 0.312 | 0.871 | 0.775 | 0.829 | 0.577 | 0.495 | 0.542 | 0.698 | 0.999 | 0.988 | 0.943 | 0.503 | 0.387 | 0.933 | 0.362 | 0.399
7 | C[C@@H](Oc1cc(-c2cnn(C3CCNCC3)c2)cnc1N)c1c(Cl)ccc(F)c1Cl [Crizotinib] + CC1=C(C(=CC=C1)Cl)NC(=O)C2=CN=C(S2)NC3=CC(=NC(=N3)C)N4CCN(CC4)CCO [Dasatinib] (first compound max 10 µM, 7x7, partner max 2 µM) | 0.0207 | 0.839 | 0.306 | 0.591 | 0.127 | 0.792 | 0.829 | 0.494 | 0.921 | 0.342 | 0.888 | 0.659 | 0.452 | 0.999 | 0.639 | 0.885 | 0.812 | 0.95 | 0.825 | 0.846
